According to article PMC6706640, “Systematic mapping of protein‐metabolite interactions in central metabolism of Escherichia coli” (Molecular Systems Biology, 2019):

Experiments:
[1] = molecular target: T1, 6-phosphofructokinase I (PfkA) (Escherichia coli, UniProt P0A796); assay: ligand-detected T1rho 1H NMR; type: binding; settings: 15 uM monomer, 200 uM metabolite in mix, pH 7.5, 298 K, 5 mM MgCl2
T1 construct: full-length His-tagged protein from ASKA library clone (E. coli K-12 ORF collection)
T1 sequence (P0A796 1-320): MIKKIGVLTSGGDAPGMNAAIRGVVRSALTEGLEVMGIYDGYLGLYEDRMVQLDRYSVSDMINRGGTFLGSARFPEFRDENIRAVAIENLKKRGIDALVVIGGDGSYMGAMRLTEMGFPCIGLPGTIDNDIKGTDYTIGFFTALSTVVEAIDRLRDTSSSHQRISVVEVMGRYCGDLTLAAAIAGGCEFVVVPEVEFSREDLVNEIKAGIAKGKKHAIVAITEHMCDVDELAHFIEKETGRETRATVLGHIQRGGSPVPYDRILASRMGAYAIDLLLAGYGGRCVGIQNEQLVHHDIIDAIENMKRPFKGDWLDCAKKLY

enolase (Eno) = molecular target: T2, enolase (Eno) (Escherichia coli, UniProt P0A6P9); assay: ligand-detected T1rho 1H NMR; type: binding; settings: 15 uM monomer, 200 uM metabolite in mix, pH 7.5, 298 K, 5 mM MgCl2
T2 construct: full-length His-tagged protein from ASKA library clone (E. coli K-12 ORF collection)
T2 sequence (P0A6P9 2-432): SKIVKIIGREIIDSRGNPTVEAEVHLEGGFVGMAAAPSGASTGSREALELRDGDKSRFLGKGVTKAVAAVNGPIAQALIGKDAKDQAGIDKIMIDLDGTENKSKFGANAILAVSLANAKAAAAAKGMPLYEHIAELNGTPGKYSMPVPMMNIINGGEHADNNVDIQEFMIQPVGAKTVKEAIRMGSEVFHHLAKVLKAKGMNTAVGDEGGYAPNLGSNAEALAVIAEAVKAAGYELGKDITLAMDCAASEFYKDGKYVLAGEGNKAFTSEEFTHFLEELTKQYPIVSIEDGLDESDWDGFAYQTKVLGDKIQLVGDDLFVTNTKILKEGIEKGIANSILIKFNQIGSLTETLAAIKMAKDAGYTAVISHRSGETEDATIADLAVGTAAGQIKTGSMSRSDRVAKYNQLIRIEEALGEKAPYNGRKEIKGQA

[2] = molecular target: T3, NADP+-dependent glucose-6-phosphate dehydrogenase (Zwf) (Escherichia coli, UniProt P0AC53); assay: ligand-detected T1rho 1H NMR; inhibition checked by NADPH formation assay; type: biochemical; settings: NMR: 15 uM monomer, 200 uM metabolite in mix, pH 7.5, 298 K, 5 mM MgCl2; activity: 2 and 10 mM GTP, 2 mM G6P, 1 mM NADP+, 30 C
T3 construct: full-length His-tagged protein from ASKA library clone (E. coli K-12 ORF collection)
T3 sequence (P0AC53 whole entry): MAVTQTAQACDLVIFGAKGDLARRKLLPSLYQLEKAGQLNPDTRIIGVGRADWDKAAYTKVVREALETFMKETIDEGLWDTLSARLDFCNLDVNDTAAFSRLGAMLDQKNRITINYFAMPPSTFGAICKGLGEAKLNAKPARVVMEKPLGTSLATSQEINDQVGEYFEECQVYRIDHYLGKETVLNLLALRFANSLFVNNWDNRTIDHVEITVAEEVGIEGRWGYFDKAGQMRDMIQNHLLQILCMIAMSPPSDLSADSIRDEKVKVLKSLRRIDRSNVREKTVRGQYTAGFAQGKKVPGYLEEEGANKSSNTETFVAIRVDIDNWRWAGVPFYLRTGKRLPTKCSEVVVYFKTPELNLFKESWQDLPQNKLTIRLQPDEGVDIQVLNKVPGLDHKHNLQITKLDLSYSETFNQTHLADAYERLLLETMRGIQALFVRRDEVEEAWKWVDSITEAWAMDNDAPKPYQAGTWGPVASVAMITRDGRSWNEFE

Nc1ncnc2c1ncn2[C@@H]1O[C@H](COP(=O)(O)O)[C@@H](O)[C@H]1O [AMP]
ΔRF [1]: two of which were detected in both datasets (Eno–PEP and PfkA–AMP)

C=C(OP(=O)(O)O)C(=O)O [phosphoenolpyruvate]
ΔRF (enolase (Eno)): two of which were detected in both datasets (Eno–PEP and PfkA–AMP)

Nc1nc2c(ncn2[C@@H]2O[C@H](COP(=O)(O)OP(=O)(O)OP(=O)(O)O)[C@@H](O)[C@H]2O)c(=O)[nH]1 [GTP]
ΔRF [2]: ATP and GTP indeed inhibited Zwf even at physiological concentrations of MgCl2
